From the NIST ThermoML archive (doi:10.1021/je200811n)
Several values for one entry are separate records, joined by “and”; a condition that tells them apart may be missing. Equal entries are not always repeated.

Settings: Hot wire method

F/C=C/C(F)(F)F [trans-1,3,3,3-tetrafluoropropene]
Settings	thermal conductivity
341.16 K, 8206 kPa, Liquid	0.06693 W/m/K
341.17 K, 3028 kPa, Liquid	0.06204 W/m/K
341.17 K, 12132 kPa, Liquid	0.07036 W/m/K
341.2 K, 1573 kPa, Liquid	0.06027 W/m/K
341.38 K, 96 kPa, Gas	0.01689 W/m/K
341.39 K, 20076 kPa, Liquid	0.07508 W/m/K
341.4 K, 194 kPa, Gas	0.01707 W/m/K
341.4 K, 3026 kPa, Liquid	0.06202 W/m/K
341.42 K, 8129 kPa, Liquid	0.06706 W/m/K
341.42 K, 16390 kPa, Liquid	0.07285 W/m/K
341.44 K, 21979 kPa, Liquid	0.07653 W/m/K
341.45 K, 1581 kPa, Liquid	0.06025 W/m/K
341.48 K, 12128 kPa, Liquid	0.07023 W/m/K
341.48 K, 20072 kPa, Liquid	0.07503 W/m/K
341.49 K, 5174 kPa, Liquid	0.06424 W/m/K
341.5 K, 3025 kPa, Liquid	0.06178 W/m/K
341.51 K, 16388 kPa, Liquid	0.07271 W/m/K
341.52 K, 8125 kPa, Liquid	0.0669 W/m/K
341.52 K, 21981 kPa, Liquid	0.07638 W/m/K
341.54 K, 1585 kPa, Liquid	0.05998 W/m/K
341.58 K, 5172 kPa, Liquid	0.06405 W/m/K
341.58 K, 8204 kPa, Liquid	0.06619 W/m/K
341.58 K, 12127 kPa, Liquid	0.07002 W/m/K
341.64 K, 194 kPa, Gas	0.01696 W/m/K
341.72 K, 673 kPa, Gas	0.01756 W/m/K
341.75 K, 673 kPa, Gas	0.01724 W/m/K
341.76 K, 3022 kPa, Liquid	0.0618 W/m/K
341.77 K, 449 kPa, Gas	0.01756 W/m/K
341.77 K, 450 kPa, Gas	0.01753 W/m/K
341.81 K, 1588 kPa, Liquid	0.06 W/m/K
341.81 K, 20066 kPa, Liquid	0.07498 W/m/K
341.83 K, 1416 kPa, Gas	0.01808 W/m/K
341.84 K, 16385 kPa, Liquid	0.0727 W/m/K
341.84 K, 21982 kPa, Liquid	0.07632 W/m/K
341.87 K, 297 kPa, Gas	0.0174 W/m/K
341.88 K, 8122 kPa, Liquid	0.06684 W/m/K
341.91 K, 194 kPa, Gas	0.01763 W/m/K
341.92 K, 12126 kPa, Liquid	0.06996 W/m/K
341.92 K, 20063 kPa, Liquid	0.07481 W/m/K
341.94 K, 8199 kPa, Liquid	0.0668 W/m/K
341.95 K, 21979 kPa, Liquid	0.07618 W/m/K
341.96 K, 16381 kPa, Liquid	0.07254 W/m/K
341.97 K, 1251 kPa, Gas	0.01812 W/m/K
341.97 K, 5173 kPa, Liquid	0.06395 W/m/K
342 K, 8119 kPa, Liquid	0.06663 W/m/K
342.04 K, 96 kPa, Gas	0.0178 W/m/K
342.04 K, 671 kPa, Gas	0.01723 W/m/K
342.04 K, 1049 kPa, Gas	0.01784 W/m/K
342.04 K, 1050 kPa, Gas	0.01784 W/m/K
342.04 K, 12122 kPa, Liquid	0.06981 W/m/K
342.06 K, 8193 kPa, Liquid	0.0666 W/m/K
342.08 K, 870 kPa, Gas	0.01766 W/m/K
342.09 K, 450 kPa, Gas	0.0176 W/m/K
342.09 K, 868 kPa, Gas	0.01764 W/m/K
342.09 K, 5187 kPa, Liquid	0.06375 W/m/K
342.1 K, 450 kPa, Gas	0.01757 W/m/K
342.19 K, 297 kPa, Gas	0.0174 W/m/K
342.2 K, 297 kPa, Gas	0.01731 W/m/K
342.25 K, 1250 kPa, Gas	0.01811 W/m/K
342.26 K, 194 kPa, Gas	0.01748 W/m/K
342.26 K, 1414 kPa, Gas	0.01822 W/m/K
342.27 K, 20059 kPa, Liquid	0.07476 W/m/K
342.3 K, 21979 kPa, Liquid	0.07611 W/m/K
342.32 K, 16372 kPa, Liquid	0.07244 W/m/K
342.33 K, 1047 kPa, Gas	0.01784 W/m/K
342.33 K, 1048 kPa, Gas	0.01781 W/m/K
342.36 K, 669 kPa, Gas	0.01728 W/m/K
342.37 K, 670 kPa, Gas	0.01729 W/m/K
342.38 K, 866 kPa, Gas	0.01767 W/m/K
342.39 K, 867 kPa, Gas	0.01765 W/m/K
342.4 K, 8117 kPa, Liquid	0.06658 W/m/K
342.42 K, 450 kPa, Gas	0.01758 W/m/K
342.43 K, 451 kPa, Gas	0.01761 W/m/K
342.43 K, 12120 kPa, Liquid	0.06971 W/m/K
342.43 K, 21977 kPa, Liquid	0.07598 W/m/K
342.44 K, 97 kPa, Gas	0.01786 W/m/K
342.46 K, 8190 kPa, Liquid	0.06655 W/m/K
342.46 K, 16363 kPa, Liquid	0.07249 W/m/K
342.55 K, 1411 kPa, Gas	0.01807 W/m/K
342.56 K, 296 kPa, Gas	0.01736 W/m/K and 0.01734 W/m/K
342.56 K, 1249 kPa, Gas	0.01814 W/m/K
342.56 K, 8113 kPa, Liquid	0.06632 W/m/K
342.58 K, 12118 kPa, Liquid	0.06949 W/m/K
342.59 K, 1260 kPa, Gas	0.01776 W/m/K
342.64 K, 1045 kPa, Gas	0.01782 W/m/K
342.64 K, 1046 kPa, Gas	0.01782 W/m/K
342.65 K, 194 kPa, Gas	0.01771 W/m/K
342.71 K, 668 kPa, Gas	0.01733 W/m/K
342.71 K, 864 kPa, Gas	0.01769 W/m/K
342.72 K, 865 kPa, Gas	0.01767 W/m/K
342.78 K, 20073 kPa, Liquid	0.07479 W/m/K
342.79 K, 450 kPa, Gas	0.01763 W/m/K
342.79 K, 451 kPa, Gas	0.01763 W/m/K
342.81 K, 21978 kPa, Liquid	0.07589 W/m/K
342.85 K, 97 kPa, Gas	0.01784 W/m/K
342.85 K, 16357 kPa, Liquid	0.07241 W/m/K
342.94 K, 296 kPa, Gas	0.0174 W/m/K and 0.01739 W/m/K
342.96 K, 20077 kPa, Liquid	0.07456 W/m/K
342.97 K, 1044 kPa, Gas	0.01783 W/m/K
342.97 K, 21978 kPa, Liquid	0.07571 W/m/K
342.98 K, 1044 kPa, Gas	0.01784 W/m/K
342.98 K, 12116 kPa, Liquid	0.06939 W/m/K
343.02 K, 16352 kPa, Liquid	0.07225 W/m/K
343.05 K, 862 kPa, Gas	0.01767 W/m/K
343.05 K, 863 kPa, Gas	0.0177 W/m/K
343.06 K, 194 kPa, Gas	0.01766 W/m/K
343.07 K, 666 kPa, Gas	0.01736 W/m/K
343.08 K, 667 kPa, Gas	0.01735 W/m/K
343.16 K, 1405 kPa, Gas	0.01819 W/m/K
343.25 K, 1255 kPa, Gas	0.01787 W/m/K
343.28 K, 96 kPa, Gas	0.01785 W/m/K
343.32 K, 1043 kPa, Gas	0.01783 W/m/K
343.35 K, 296 kPa, Gas	0.01753 W/m/K
343.48 K, 194 kPa, Gas	0.01763 W/m/K

Settings	thermal conductivity [W/m/K]
343.15 K, Liquid	0.05993
